For assay [1], the target named is T1, Recombinant human IKKβ (residues 1-737) (Homo sapiens, UniProt O14920).
T1 construct: Recombinant human IKKβ (residues 1-737); GST (C); made in house
T1 sequence (O14920 1-737): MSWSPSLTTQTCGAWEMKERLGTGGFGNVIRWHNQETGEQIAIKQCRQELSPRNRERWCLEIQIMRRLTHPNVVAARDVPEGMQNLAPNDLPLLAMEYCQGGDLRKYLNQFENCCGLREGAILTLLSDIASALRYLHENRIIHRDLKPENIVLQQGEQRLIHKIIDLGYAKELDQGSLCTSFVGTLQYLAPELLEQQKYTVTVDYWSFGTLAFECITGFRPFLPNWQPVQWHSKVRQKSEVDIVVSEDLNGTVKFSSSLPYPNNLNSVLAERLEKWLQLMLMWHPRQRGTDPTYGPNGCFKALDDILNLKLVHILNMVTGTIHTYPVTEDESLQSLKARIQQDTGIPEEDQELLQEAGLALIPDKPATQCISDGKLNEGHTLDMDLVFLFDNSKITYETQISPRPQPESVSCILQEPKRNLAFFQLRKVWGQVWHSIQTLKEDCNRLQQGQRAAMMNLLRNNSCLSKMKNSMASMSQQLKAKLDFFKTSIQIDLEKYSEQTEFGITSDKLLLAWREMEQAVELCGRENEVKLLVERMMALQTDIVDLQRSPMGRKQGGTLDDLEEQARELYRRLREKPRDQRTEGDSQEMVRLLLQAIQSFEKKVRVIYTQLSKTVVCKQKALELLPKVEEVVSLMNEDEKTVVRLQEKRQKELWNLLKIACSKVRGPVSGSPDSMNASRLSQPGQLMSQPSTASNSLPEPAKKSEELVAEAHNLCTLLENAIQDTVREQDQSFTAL
Description: IKK2 assay (TR-FRET). The format is biochemical. The settings on record: ATP 1 μM final, read-out: pIC50 against IKK2 (converted). In short, it runs like this: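 Baculovirus-expressed C-terminal GST-tagged IKKβ (0.5-5 nM final) in HEPES pH 7.4, MgCl2, CHAPS, DTT, BSA with 1.7% DMSO; 25 nM GST-IB substrate and 1 μM ATP, 15 min at room temperature. EDTA stop; phospho-Ser32/36 detected by Eu-antibody/APC-anti-GST TR-FRET, 665/620 nm ratio.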

Assay [2] relates to human monocyte stimulated cytokine production (TNF-α). Description: Monocyte assay (LPS-stimulated TNF-α production). The format is cell-based. The settings on record: 24 h, 200 ng/mL LPS, TNF-α by ELISA. In short, it runs like this: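 Human CD14+ monocytes were purified from blood and plated at 1×10^6 cells/mL in RPMI 1640 with 10% FBS. Compound was added 30 min before stimulation with 200 ng/mL LPS (0.1% DMSO final), followed by 24 hrs at 37 C. Supernatant TNF-α was measured by ELISA, and viability by trypan blue exclusion.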

Each structure is given as a SMILES string. Structures can show the parent of a compound that is named as a salt. Where only a bound is given, the exact number is not on record here.

Data on 18 molecules can be found in US8063071B2 (GlaxoSmithKline, LLC, priority 2007, dated 2011).

In the case of `CCS(=O)(=O)N1CCC(c2c[nH]c3c(C(N)=O)cc(-c4cccc(CNC[C@@H]5CCCO5)c4)cc23)CC1` [Example 307, 3-[1-(ethylsulfonyl)-4-piperidinyl]-5-[3-({[(2S)-tetrahydro-2-furanylmethyl]amino}methyl)phenyl]-1H-indole-7-carboxamide trifluoroacetate], the IC50 in assay [1] is no more than 10 µM; in assay [2], no more than 1.5 µM.

With `CCS(=O)(=O)N1CCC(c2c[nH]c3c(C(N)=O)cc(-c4cccc(CNCC(C)(C)C)c4)cc23)CC1` [Example 308, 5-(3-{[(2,2-dimethylpropyl)amino]methyl}phenyl)-3-[1-(ethylsulfonyl)-4-piperidinyl]-1H-indole-7-carboxamide trifluoroacetate], the IC50 in assay [1] was no more than 10 µM; in assay [2], no more than 1.5 µM.

For the molecule `CCC(C)CNCc1cccc(-c2cc(C(N)=O)c3[nH]cc(C4CCN(S(=O)(=O)CC)CC4)c3c2)c1` (stereo not drawn) [Example 309, 3-[1-(ethylsulfonyl)-4-piperidinyl]-5-(3-{[(2-methylbutyl)amino]methyl}phenyl)-1H-indole-7-carboxamide], the IC50 was no more than 10 µM in assay [1] and no more than 1.5 µM in assay [2].

On to `CC[C@H](C)CNCc1cccc(-c2cc(C(N)=O)c3[nH]cc(C4CCN(S(=O)(=O)CC)CC4)c3c2)c1` [Example 310, 3-[1-(ethylsulfonyl)-4-piperidinyl]-5-[3-({[(2S)-2-methylbutyl]amino}methyl)phenyl]-1H-indole-7-carboxamide], for which the values for the IC50 in assay [1] and in assay [2] were no more than 10 µM and no more than 1.5 µM, respectively.

Consider `CCS(=O)(=O)N1CCC(c2c[nH]c3c(C(N)=O)cc(-c4cccc(CN[C@H](C)C(C)(C)C)c4)cc23)CC1` [Example 311, 3-[1-(ethylsulfonyl)-4-piperidinyl]-5-[3-({[(1R)-1,2,2-trimethylpropyl]amino}methyl)phenyl]-1H-indole-7-carboxamide], for which the IC50 in assay [1] is no more than 10 µM; in assay [2], no more than 1.5 µM.

As for `CCS(=O)(=O)N1CCC(c2c[nH]c3c(C(N)=O)cc(-c4cc(F)cc(CNC[C@@H]5CCCO5)c4)cc23)CC1` [Example 312, 3-[1-(ethylsulfonyl)-4-piperidinyl]-5-[3-fluoro-5-({[(2S)-tetrahydro-2-furanylmethyl]amino}methyl)phenyl]-1H-indole-7-carboxamide trifluoroacetate], the IC50 was no more than 10 µM in assay [1] and no more than 1.5 µM in assay [2].

Regarding `CCS(=O)(=O)N1CCC(c2c[nH]c3c(C(N)=O)cc(-c4cc(F)cc(CNC[C@H]5CCCO5)c4)cc23)CC1` [Example 313, 3-[1-(ethylsulfonyl)-4-piperidinyl]-5-[3-fluoro-5-({[(2R)-tetrahydro-2-furanylmethyl]amino}methyl)phenyl]-1H-indole-7-carboxamide trifluoroacetate], the IC50 in assay [1] was no more than 10 µM; in assay [2] it was no more than 1.5 µM.

Turning to `CCS(=O)(=O)N1CCC(c2c[nH]c3c(C(N)=O)cc(-c4cc(F)cc(CN[C@@H](C)C(C)C)c4)cc23)CC1` [Example 314, 5-[3-({[(1S)-1,2-dimethylpropyl]amino}methyl)-5-fluorophenyl]-3-[1-(ethylsulfonyl)-4-piperidinyl]-1H-indole-7-carboxamide], the IC50 was no more than 10 µM in assay [1] and no more than 1.5 µM in assay [2].

As for `CCS(=O)(=O)N1CCC(c2c[nH]c3c(C(N)=O)cc(-c4cc(F)cc(CN[C@H](C)C(C)C)c4)cc23)CC1` [Example 315, 5-[3-({[(1R)-1,2-dimethylpropyl]amino}methyl)-5-fluorophenyl]-3-[1-(ethylsulfonyl)-4-piperidinyl]-1H-indole-7-carboxamide trifluoroacetate], the IC50 in assay [1] is no more than 10 µM; in assay [2], no more than 1.5 µM.

As to `CCC(C)NCc1cc(F)cc(-c2cc(C(N)=O)c3[nH]cc(C4CCN(S(=O)(=O)CC)CC4)c3c2)c1` (stereo not drawn) [Example 316, 3-[1-(ethylsulfonyl)-4-piperidinyl]-5-(3-fluoro-5-{[(1-methylpropyl)amino]methyl}phenyl)-1H-indole-7-carboxamide trifluoroacetate], the IC50 in assay [1] was no more than 10 µM; in assay [2] it was no more than 1.5 µM.

In the case of `CCS(=O)(=O)N1CCC(c2c[nH]c3c(C(N)=O)cc(-c4cc(F)cc(CN[C@@H](C)C(C)(C)C)c4)cc23)CC1` [Example 317, 3-[1-(ethylsulfonyl)-4-piperidinyl]-5-[3-fluoro-5-({[(1S)-1,2,2-trimethylpropyl]amino}methyl)phenyl]-1H-indole-7-carboxamide trifluoroacetate], the IC50 is no more than 10 µM in assay [1] and no more than 1.5 µM in assay [2].

Regarding `CC[C@H](C)CNCc1cc(F)cc(-c2cc(C(N)=O)c3[nH]cc(C4CCN(S(=O)(=O)CC)CC4)c3c2)c1` [Example 318, 3-[1-(ethylsulfonyl)-4-piperidinyl]-5-[3-fluoro-5-({[(2S)-2-methylbutyl]amino}methyl)phenyl]-1H-indole-7-carboxamide trifluoroacetate], the results for the IC50 in assay [1] and in assay [2] were no more than 10 µM and no more than 1.5 µM, respectively.

Take `CCC(C)CNCc1cc(F)cc(-c2cc(C(N)=O)c3[nH]cc(C4CCN(S(=O)(=O)CC)CC4)c3c2)c1` (stereo not drawn) [Example 319, 3-[1-(ethylsulfonyl)-4-piperidinyl]-5-(3-fluoro-5-{[(2-methylbutyl)amino]methyl}phenyl)-1H-indole-7-carboxamide trifluoroacetate]: the values for the IC50 in assay [1] and in assay [2] were no more than 10 µM and no more than 1.5 µM, respectively.

For `CCS(=O)(=O)N1CCC(c2c[nH]c3c(C(N)=O)cc(-c4cc(F)cc(CN[C@H](C)C(C)(C)C)c4)cc23)CC1` [Example 320, 3-[1-(ethylsulfonyl)-4-piperidinyl]-5-[3-fluoro-5-({[(1R)-1,2,2-trimethylpropyl]amino}methyl)phenyl]-1H-indole-7-carboxamide trifluoroacetate], the IC50 was no more than 10 µM in assay [1] and no more than 1.5 µM in assay [2].

In the case of `CCS(=O)(=O)N1CCC(c2c[nH]c3c(C(N)=O)cc(-c4cc(F)cc(CNCC(C)(C)C)c4)cc23)CC1` [Example 321, 5-(3-{[(2,2-dimethylpropyl)amino]methyl}-5-fluorophenyl)-3-[1-(ethylsulfonyl)-4-piperidinyl]-1H-indole-7-carboxamide trifluoroacetate], the IC50 was no more than 10 µM in assay [1] and no more than 1.5 µM in assay [2].

Consider `CCS(=O)(=O)N1CCC(c2c[nH]c3c(C(N)=O)cc(-c4cc(F)cc(CNCC5CC5)c4)cc23)CC1` [Example 322, 5-(3-{[(cyclopropylmethyl)amino]methyl}-5-fluorophenyl)-3-[1-(ethylsulfonyl)-4-piperidinyl]-1H-indole-7-carboxamide trifluoroacetate], for which the IC50 was no more than 10 µM in assay [1] and no more than 1.5 µM in assay [2].

Consider `CCS(=O)(=O)N1CCC(c2c[nH]c3c(C(N)=O)cc(-c4cc(F)cc(CNCC5CCCC5)c4)cc23)CC1` [Example 323, 5-(3-{[(cyclopentylmethyl)amino]methyl}-5-fluorophenyl)-3-[1-(ethylsulfonyl)-4-piperidinyl]-1H-indole-7-carboxamide trifluoroacetate], for which the IC50 was no more than 10 µM in assay [1] and no more than 1.5 µM in assay [2].

Consider `CCS(=O)(=O)N1CCC(c2c[nH]c3c(C(N)=O)cc(-c4cc(F)cc(CNCC5CCOCC5)c4)cc23)CC1` [Example 324, 3-[1-(ethylsulfonyl)-4-piperidinyl]-5-(3-fluoro-5-{[(tetrahydro-2H-pyran-4-ylmethyl)amino]methyl}phenyl)-1H-indole-7-carboxamide trifluoroacetate], for which the IC50 is no more than 10 µM in assay [1] and no more than 1.5 µM in assay [2].
